From patent EP4603105A1, “PHARMACEUTICAL COMPOSITION CONTAINING CYCLIC COMPOUND HAVING SELECTIVE KRAS INHIBITORY EFFECT AGAINST HRAS AND NRAS” (CHUGAI SEIYAKU KABUSHIKI KAISHA, priority 2022, dated 2024)
Where two headings read alike, the source gives them in different places.

How the values were obtained:
[1] = target: GDP-bound KRAS wild-type protein (Homo sapiens, UniProt P01116); test: Binding to KRAS by surface plasmon resonance (SPR), dissociation constant KD
Summary of the method: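 GDP-bound biotin-Avi RAS captured at ~100–300 RU, 30°C, pH 7.4 HBS containing 10 µM GDP, 10 mM MgCl2, 1 mM DTT, 0.01% Tween 20 and 4% DMSO. KD by 1:1 fitting.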

HRAS wild-type protein = HRAS wild-type protein (Homo sapiens, UniProt P01112); test: Binding to HRAS by surface plasmon resonance (SPR), KD and KD ratio to KRAS
Summary of the method: (§1)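 Each cycle, GDP-bound biotin-Avi RAS was captured (~100–300 RU), compound concentrations were injected low to high for 75 s each at 100 µL/min, then the chip was regenerated. Buffer: HBS pH 7.4, 10 mM MgCl2, 10 µM GDP, 1 mM DTT, 4% DMSO; 30°C. KD from a 1:1 binding model.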

[2] = target: GDP-bound NRAS wild-type protein (Homo sapiens, UniProt P01111); test: Binding to NRAS by surface plasmon resonance (SPR), KD and KD ratio to KRAS
Summary of the method: as §1

[3] = tested on: human lung cancer strain NCI-H441; test: NCI-H441 cell proliferation inhibitory activity (CellTiter-Glo, 4 days); type: cell-based; settings: read-out: NCl-H441 IC50
Summary of the method: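 Signal came from […] measured per well once the reagent was added. Beforehand, cells were cultured at 37°C and 5% carbon dioxide on a compound series serially diluted in dimethyl sulfoxide.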

[4] = ratio of KD for HRAS wild-type protein to KD for KRAS
[5] = ratio of KD for GDP-bound NRAS wild-type protein to KD for KRAS
[6] = Single Cycle Kinetics, 1:1 binding model
[7] = ratio of KD with respect to HRAS wild-type protein to KD with respect to KRAS
[8] = ratio of KD with respect to GDP-bound NRAS wild-type protein to KD with respect to KRAS
[9] = 50% proliferation inhibitory concentration, four days

Sequence of GDP-bound KRAS wild-type protein (P01116 1-188 isoform P01116-2): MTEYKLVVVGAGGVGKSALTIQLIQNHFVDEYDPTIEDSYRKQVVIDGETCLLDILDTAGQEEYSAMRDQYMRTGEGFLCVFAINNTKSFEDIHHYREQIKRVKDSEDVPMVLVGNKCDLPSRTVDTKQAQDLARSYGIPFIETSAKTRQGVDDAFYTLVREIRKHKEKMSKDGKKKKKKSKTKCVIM
Sequence of GDP-bound NRAS wild-type protein (P01111 whole entry): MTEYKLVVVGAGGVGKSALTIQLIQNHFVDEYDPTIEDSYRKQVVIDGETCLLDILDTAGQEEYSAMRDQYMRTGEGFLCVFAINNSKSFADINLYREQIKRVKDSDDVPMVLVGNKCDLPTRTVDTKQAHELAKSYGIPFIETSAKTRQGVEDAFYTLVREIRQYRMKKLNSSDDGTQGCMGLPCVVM
Sequence of HRAS wild-type protein (P01112 whole entry): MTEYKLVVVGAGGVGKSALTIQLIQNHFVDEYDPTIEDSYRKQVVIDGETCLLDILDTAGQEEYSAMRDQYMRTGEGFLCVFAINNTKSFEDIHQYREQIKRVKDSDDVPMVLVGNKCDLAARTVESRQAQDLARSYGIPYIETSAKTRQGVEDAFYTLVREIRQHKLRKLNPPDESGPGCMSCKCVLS

SMILES	Kd ([1]; 1:1 binding model) [nM]	IC50 ([3]; NCI-H441 cells, 4 days) [nM]	Kd [1, 6] [nM]	IC50 [3, 9] [nM]	Kd ([1]; Single Cycle Kinetics) [nM]	HRAS /KRAS (HRAS wild-type protein; [4])	NRAS /KRAS [2, 5]	HRAS /KRAS (HRAS wild-type protein; [7])	NRAS /KRAS [2, 8]
CCC[C@H]1C(=O)N[C@H]([C@@H](C)CC)C(=O)N2C[C@@H](OC)C[C@H]2C(=O)N(C)[C@H]2C/C=C\CCN(C2=O)[C@@H](Cc2ccc(C)cc2)C(=O)N(C)CC(=O)N[C@@H](CCc2ccc(C(F)(F)F)c(Cl)c2)C(=O)N2C[C@H](OCC)C[C@H]2C(=O)NC2(CCC2)C(=O)N(C)[C@@H](C2CCCC2)C(=O)N(C)[C@H](C(=O)N(C)C)CC(=O)N1C [PP2552]	0.28	30.5	–	–	–	B (a compound having 3 or more and less than 10 is denoted as B)	A (a compound having 10 or more and less than 20 is denoted as A)	–	–
CCO[C@@H]1C[C@H]2C(=O)NC3(CCC3)C(=O)N(C)[C@@H](C3CCCC3)C(=O)N(C)[C@H](C(=O)N3CCCC3)CC(=O)N(C)[C@@H](CC3CCCC3)C(=O)N[C@@H]([C@@H](C)CC)C(=O)N(C)CC(=O)N(C)[C@H]3C/C=C\CCN(C3=O)[C@@H](Cc3ccc(F)cc3)C(=O)N(C)CC(=O)N[C@@H](CCc3ccc4sccc4c3)C(=O)N2C1 [PP1391]	–	–	1.6	271	–	–	–	A (a compound having 10 or more and less than 20 is denoted as A)	A (a compound having 10 or more and less than 20 is denoted as A)
CCCOC[C@H]1C(=O)N[C@@H]([C@@H](C)CC)C(=O)N(C)CC(=O)N(C)[C@H]2C/C=C\CCN(C2=O)[C@@H](Cc2ccc(C)cc2)C(=O)N(C)CC(=O)N[C@@H](CCc2ccc(C(F)(F)F)c(Cl)c2)C(=O)N2C[C@@H](C)C[C@H]2C(=O)NC2(CC(C)(C)C2)C(=O)N(C)[C@@H](C2CCCC2)C(=O)N(C)[C@H](C(=O)N(C)C)CC(=O)N1C [PP2453]	0.09	9.2	–	–	–	A (a compound having 10 or more and less than 20 is denoted as A)	A (a compound having 10 or more and less than 20 is denoted as A)	–	–
CCC[C@H]1C(=O)N[C@@H]([C@@H](C)CC)C(=O)N(C)CC(=O)N(C)[C@H]2C/C=C\CCN(C2=O)[C@@H](Cc2ccc(C)cc2)C(=O)N(C)CC(=O)N[C@@H](CCc2ccc(C(F)(F)F)c(Cl)c2)C(=O)N2CC3(CC3)C[C@H]2C(=O)NC2(CCC2)C(=O)N(C)[C@@H](C(CC)CC)C(=O)N(C)[C@H](C(=O)N(C)C)CC(=O)N1C [PP3424]	–	27.2	–	–	0.48	A (a compound having 10 or more and less than 20 is denoted as A)	AA (a compound having 20 or more is denoted as AA)	–	–
CCO[C@@H]1C[C@H]2C(=O)NC3(CCC3)C(=O)N(C)[C@@H](C3CCCC3)C(=O)N(C)[C@H](C(=O)N3CCOCC3)CC(=O)N(C)[C@@H](CC(F)F)C(=O)N[C@@H]([C@@H](C)CC)C(=O)N(C)CC(=O)N(C)[C@H]3CCCCCN(C3=O)[C@@H](Cc3ccc(F)cc3)C(=O)N(C)CC(=O)N[C@@H](CCc3cc(F)c(C(F)(F)F)c(F)c3)C(=O)N2C1 [PP1177]	–	–	0.081	32.5	–	–	–	B (a compound having 3 or more and less than 10 is denoted as B)	B (a compound having 3 or more and less than 10 is denoted as B)
CCC[C@H]1C(=O)N[C@@H]([C@@H](C)CC)C(=O)N(C)CC(=O)N(C)[C@H]2C/C=C\CCN(C2=O)[C@@H](Cc2ccc(C)cc2)C(=O)N(C)CC(=O)N[C@@H](CCc2ccc(C(F)(F)F)c(Cl)c2)C(=O)N2CC[C@H](OC)[C@H]2C(=O)N(C)C2(CCC2)C(=O)N(C)[C@@H](C2CCCC2)C(=O)N(C)[C@H](C(=O)N(C)C)CC(=O)N1C [PP3237]	–	6.1	–	–	0.057	B (a compound having 3 or more and less than 10 is denoted as B)	A (a compound having 10 or more and less than 20 is denoted as A)	–	–
CCO[C@@H]1C[C@H]2C(=O)NC3(CC(C)(C)C3)C(=O)N(C)[C@@H](C3CCCC3)C(=O)N(C)[C@H](C(=O)N(C)C)CC(=O)N[C@@H](CC(C)C)C(=O)N[C@@H]([C@@H](C)CC)C(=O)N(C)CC(=O)N(C)[C@H]3C/C=C\CCN(C3=O)[C@@H](Cc3ccc(C(F)(F)F)cc3)C(=O)N(C)CC(=O)N[C@@H](CCc3ccc(C(F)(F)F)c(OC)c3)C(=O)N2C1 [PP3445]	–	20.2	–	–	0.13	A (a compound having 10 or more and less than 20 is denoted as A)	A (a compound having 10 or more and less than 20 is denoted as A)	–	–
CCC(CC)[C@H]1C(=O)N(C)[C@H](C(=O)N(C)C)CC(=O)N(C)[C@@H](COC)C(=O)N[C@@H]([C@@H](C)CC)C(=O)N(C)CC(=O)N(C)[C@H]2C/C=C\CCN(C2=O)[C@@H](Cc2ccc(C(F)(F)F)cc2)C(=O)N(C)CC(=O)N[C@@H](CCc2ccc(Cl)c(Cl)c2)C(=O)N2C[C@H](OC3CCCC3)C[C@H]2C(=O)NC2(CC(C)(C)C2)C(=O)N1C [PP2648]	0.85	68.5	–	–	–	A (a compound having 10 or more and less than 20 is denoted as A)	A (a compound having 10 or more and less than 20 is denoted as A)	–	–

More lines, main results first:

Kd ([1]; 1:1 binding model) [nM]	IC50 ([3]; NCI-H441 cells, 4 days) [nM]	Kd [1, 6] [nM]	IC50 [3, 9] [nM]	Kd ([1]; Single Cycle Kinetics) [nM]	SMILES	HRAS /KRAS (HRAS wild-type protein; [4])	NRAS /KRAS [2, 5]	HRAS /KRAS (HRAS wild-type protein; [7])	NRAS /KRAS [2, 8]
0.29	33.1	–	–	–	CCCO[C@H](C)[C@@H]1NC(=O)[C@H](CC(C)C)N(C)C(=O)C[C@@H](C(=O)N(C)CC)N(C)C(=O)[C@H](C2CCCC2)N(C)C(=O)C2(CC(C)(C)C2)NC(=O)[C@@H]2C[C@H](C)CN2C(=O)[C@H](CCc2ccc(C(F)(F)F)c(OC)c2)NC(=O)CN(C)C(=O)[C@H](Cc2ccc(C)cc2)N2CC/C=C\C[C@@H](C2=O)N(C)C(=O)CN(C)C1=O [PP2416]	B (a compound having 3 or more and less than 10 is denoted as B)	A (a compound having 10 or more and less than 20 is denoted as A)	–	–
–	–	0.15	1780	–	CC[C@H](C)[C@@H]1NC(=O)[C@H](CC)N(C)C(=O)C[C@@H](C(=O)N(C)C)N(C)C(=O)[C@H](C2CCCC2)N(C)C(=O)C2(CCC2)NC(=O)[C@H](C)NC(=O)[C@H](CCc2cc(F)c(C(F)(F)F)c(F)c2)NC(=O)CN(C)C(=O)[C@H](Cc2ccc(C(F)(F)F)cc2)N2CC/C=C\C[C@@H](C2=O)N(C)C(=O)CN(C)C1=O [PP1140]	–	–	A (a compound having 10 or more and less than 20 is denoted as A)	A (a compound having 10 or more and less than 20 is denoted as A)
–	–	0.15	73.1	–	CCO[C@@H]1C[C@H]2C(=O)NC3(CCC3)C(=O)N(C)[C@@H](C3CCCC3)C(=O)N(C)[C@H](C(=O)N(C)C)CC(=O)N(C)[C@@H](Cc3ccccc3C#N)C(=O)N[C@@H]([C@@H](C)CC)C(=O)N(C)CC(=O)N(C)[C@H]3CCCCCN(C3=O)[C@@H](Cc3ccc(F)cc3)C(=O)N(C)CC(=O)N[C@@H](CCc3cc(F)c(C(F)(F)F)c(F)c3)C(=O)N2C1 [PP1155]	–	–	B (a compound having 3 or more and less than 10 is denoted as B)	B (a compound having 3 or more and less than 10 is denoted as B)
